Several values for one entry are separate records, joined by “and”; a condition that tells them apart may be missing. Equal entries are not always repeated. Toxic doses and inconclusive results are not listed. The calls were made as follows: active = survival T/C of 150% or more; inactive = T/C below 125% in these data.
System: P388 leukemia ip, CD2F1 mice, survival T/C
Experiment: NCI In Vivo Anticancer Drug Screen. Data for tumor model P388 Leukemia (intraperitoneal) in CD2F1 (CDF1) mice
Conditions: endpoint: median survival time, higher = longer survival
In short: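 Mice carrying the transplanted tumor received test compound or vehicle. Survival was recorded in each group, and the value is the treated-group measurement divided by that of the vehicle-treated control group.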

[1] = dose: 50.0 mg/kg/injection, schedule: Q01DX009 (ip), vehicle: saline with Tween-80
[2] = dose: 50.0 mg/kg/injection, schedule: Q01DX009 (ip), vehicle: saline
[3] = dose: 100.0 mg/kg/injection, schedule: Q01DX009 (ip), vehicle: saline with Tween-80
[4] = dose: 100.0 mg/kg/injection, schedule: Q01DX009 (ip), vehicle: saline
[5] = dose: 200.0 mg/kg/injection, schedule: Q01DX009 (ip), vehicle: saline with Tween-80
[6] = dose: 200.0 mg/kg/injection, schedule: Q01DX009 (ip), vehicle: saline
[7] = dose: 50.0 mg/kg/injection, schedule: Q01DX005 (ip), vehicle: Klucel (hydroxypropylcellulose) (HPC)
[8] = dose: 100.0 mg/kg/injection, schedule: Q01DX005 (ip), vehicle: Klucel (hydroxypropylcellulose) (HPC)
[9] = dose: 200.0 mg/kg/injection, schedule: Q01DX005 (ip), vehicle: Klucel (hydroxypropylcellulose) (HPC)
[10] = dose: 50.0 mg/kg/injection, schedule: Q01DX005 (ip), vehicle: saline with Tween-80
[11] = dose: 100.0 mg/kg/injection, schedule: Q01DX005 (ip), vehicle: saline with Tween-80
[12] = dose: 200.0 mg/kg/injection, schedule: Q01DX005 (ip), vehicle: saline with Tween-80
[13] = dose: 60.0 mg/kg/injection, schedule: Q01DX005 (ip), vehicle: saline with Tween-80
[14] = dose: 120.0 mg/kg/injection, schedule: Q01DX005 (ip), vehicle: saline with Tween-80
[15] = dose: 240.0 mg/kg/injection, schedule: Q01DX005 (ip), vehicle: saline with Tween-80

Measured: T/C

C/C=C1\CN2CCC34c5ccccc5N5C(C6C7CC8N(CCC89c8ccccc8N(C(C)=O)C69)C/C7=C\C)OCC(C1CC23)C54 (centres undefined)
inactive: dose: 12.06 mg/kg/injection, schedule: Q01DX009 (ip), vehicle: saline with Tween-80 100 % of control | dose: 24.12 mg/kg/injection, schedule: Q01DX009 (ip), vehicle: saline with Tween-80 107 % of control | dose: 48.25 mg/kg/injection, schedule: Q01DX009 (ip), vehicle: saline with Tween-80 109 % of control

CCC1CN2CCc3cc(OC)c(OC)cc3C2CC1=O (centres undefined)
inactive: dose: 12.5 mg/kg/injection, schedule: Q01DX009 (ip), vehicle: saline 104 % of control | dose: 25.0 mg/kg/injection, schedule: Q01DX009 (ip), vehicle: saline 99 % of control | dose: 37.5 mg/kg/injection, schedule: Q04DX003 (ip), vehicle: saline with Tween-80 101 % of control | [1] 107 % of control | [2] 99 % of control and 103 % of control | dose: 75.0 mg/kg/injection, schedule: Q04DX003 (ip), vehicle: saline with Tween-80 121 % of control | [3] 112 % of control | [4] 96 % of control and 97 % of control | [5] 107 % of control | [6] 106 % of control

CC(=O)N/N=C(\C(=O)OC(=NC1CCCCC1)NC1CCCCC1)c1ccccc1
inactive: [7] 87 % of control | [8] 87 % of control | [9] 91 % of control

CCn1c(=O)c(C(C)=O)cc2c(=O)c3c(ccc4ccccc43)oc21
inactive: [10] 104 % of control | [11] 93 % of control | [12] 91 % of control

N#C/C(C(=S)S)=C(/O)c1ccccc1
inactive: dose: 25.0 mg/kg/injection, schedule: Q01DX009 (ip), vehicle: saline sonified 104 % of control | dose: 50.0 mg/kg/injection, schedule: Q01DX009 (ip), vehicle: saline sonified 109 % of control | dose: 100.0 mg/kg/injection, schedule: Q01DX009 (ip), vehicle: saline sonified 100 % of control

COC(=O)c1ccc(/C=C(\c2ccc([N+](=O)[O-])o2)S(=O)(=O)c2ccc(NC(C)=O)cc2)o1
inactive: dose: 50.0 mg/kg/injection, schedule: Q01DX009 (ip), vehicle: suspension in saline 95 % of control | dose: 100.0 mg/kg/injection, schedule: Q01DX009 (ip), vehicle: suspension in saline 88 % of control

CC(=O)N1c2ccccc2Sc2ccc3ccccc3c21
inactive: [1] 93 % of control | [3] 100 % of control | [5] 99 % of control

CC(=O)OC(CCl)C1OC(CCl)C(OC(C)=O)O1 (centres undefined)
inactive: [1] 103 % of control | [3] 103 % of control | [5] 102 % of control

CCOc1c(N=Nc2ccccc2[N+](=O)[O-])c(C)nn1C(N)=S
inactive: dose: 15.0 mg/kg/injection, schedule: Q01DX005 (ip), vehicle: Klucel + Tween-80 100 % of control | dose: 30.0 mg/kg/injection, schedule: Q01DX005 (ip), vehicle: Klucel + Tween-80 89 % of control | dose: 60.0 mg/kg/injection, schedule: Q01DX005 (ip), vehicle: Klucel + Tween-80 86 % of control and 90 % of control

CS(=O)(=O)c1ccc(C[N+]23CN4CN(CN(C4)C2)C3)cc1
inactive: dose: 60.0 mg/kg/injection, schedule: Q01DX005 (ip), vehicle: Klucel (hydroxypropylcellulose) (HPC) 98 % of control | dose: 120.0 mg/kg/injection, schedule: Q01DX005 (ip), vehicle: Klucel (hydroxypropylcellulose) (HPC) 99 % of control | dose: 240.0 mg/kg/injection, schedule: Q01DX005 (ip), vehicle: Klucel (hydroxypropylcellulose) (HPC) 98 % of control

CSc1nc(Cl)c(Cl)c(C(F)(F)F)n1
inactive: [10] 103 % of control

C/C(=N\NC(=S)N1CCN(c2ccccc2)CC1)c1cnccn1
inactive: dose: 1.56 mg/kg/injection, schedule: Q01DX005 (ip), vehicle: saline with Tween-80 103 % of control | dose: 3.13 mg/kg/injection, schedule: Q01DX005 (ip), vehicle: saline with Tween-80 105 % of control | dose: 6.25 mg/kg/injection, schedule: Q01DX005 (ip), vehicle: saline with Tween-80 111 % of control and 93 % of control | dose: 12.5 mg/kg/injection, schedule: Q01DX005 (ip), vehicle: saline with Tween-80 109 % of control

COC1=C(OC)C(=O)C(CO)=CC1=O
inactive: dose: 7.5 mg/kg/injection, schedule: Q01DX005 (ip), vehicle: saline 104 % of control | dose: 15.0 mg/kg/injection, schedule: Q01DX005 (ip), vehicle: saline 87 % of control

CCOC(=O)/C(C#N)=C(\CC)c1cc(Cl)cc(Cl)c1O
inactive: [13] 100 % of control | [14] 90 % of control | [15] 96 % of control

COc1cc2c(cc1OC)C13CCN4CC5=CCOC6CC(=O)N2C1C6C5CC43 (centres undefined) (tested in a mixture with another compound)
inactive: dose: 25.0 mg/kg/injection, schedule: Q04DX003 (ip), vehicle: saline with Tween-80 100 % of control | [1] 104 % of control | dose: 50.0 mg/kg/injection, schedule: Q04DX003 (ip), vehicle: saline with Tween-80 104 % of control | [3] 106 % of control | dose: 100.0 mg/kg/injection, schedule: Q04DX003 (ip), vehicle: saline with Tween-80 104 % of control

C/C=C(\C)C(=O)OC1C2C(C)=CC(O)C(O)C2(C)C2C3(O)OCC24C1OC(=O)C(O)C4C(C)C3O (centres undefined)
inactive: dose: 2.5 mg/kg/injection, schedule: Q01DX005 (ip), vehicle: Klucel (hydroxypropylcellulose) (HPC) 108 % of control | dose: 5.0 mg/kg/injection, schedule: Q01DX005 (ip), vehicle: Klucel (hydroxypropylcellulose) (HPC) 102 % of control | dose: 10.0 mg/kg/injection, schedule: Q01DX005 (ip), vehicle: Klucel (hydroxypropylcellulose) (HPC) 100 % of control | dose: 20.0 mg/kg/injection, schedule: Q01DX005 (ip), vehicle: Klucel (hydroxypropylcellulose) (HPC) 105 % of control

CC(=O)OC1CC2(C)C(c3ccoc3)CC3OC32C2(C)C(=O)C(O)=C3C(C)(C)C(=O)C=CC3(C)C12 (centres undefined)
inactive: dose: 3.0 mg/kg/injection, schedule: Q01DX009 (ip), vehicle: Klucel (hydroxypropylcellulose) (HPC) 96 % of control | dose: 6.0 mg/kg/injection, schedule: Q01DX009 (ip), vehicle: Klucel (hydroxypropylcellulose) (HPC) 100 % of control | dose: 12.0 mg/kg/injection, schedule: Q01DX009 (ip), vehicle: Klucel (hydroxypropylcellulose) (HPC) 100 % of control | dose: 24.0 mg/kg/injection, schedule: Q01DX009 (ip), vehicle: Klucel (hydroxypropylcellulose) (HPC) 99 % of control

O=c1ccc2nccc3c4cc(O)ccc4n1c23
inactive: dose: 1.75 mg/kg/injection, schedule: Q01DX009 (ip), vehicle: saline with Tween-80 98 % of control | dose: 7.0 mg/kg/injection, schedule: Q01DX009 (ip), vehicle: saline with Tween-80 109 % of control

COC(=O)c1ccc(SCCC(=O)CNc2nc(N)nc(N)c2[N+](=O)[O-])cc1
inactive: dose: 50.0 mg/kg/injection, schedule: Q01DX009 (ip), vehicle: Klucel (hydroxypropylcellulose) (HPC) 96 % of control | dose: 100.0 mg/kg/injection, schedule: Q01DX009 (ip), vehicle: Klucel (hydroxypropylcellulose) (HPC) 93 % of control | dose: 200.0 mg/kg/injection, schedule: Q01DX009 (ip), vehicle: Klucel (hydroxypropylcellulose) (HPC) 96 % of control

C#CCCCC#C
inactive: [7] 98 % of control | [8] 98 % of control | [9] 104 % of control

Cn1c2ccc(Cl)cc2c2oc(-c3nn[nH]n3)cc(=O)c21
inactive: [10] 102 % of control | [11] 107 % of control | [12] 97 % of control

CC(=O)C(F)(F)C(F)(F)C(F)(F)C(F)(F)C(C)=O
inactive: [13] 99 % of control | [14] 94 % of control | [15] 103 % of control

NC(CSCCCS(=O)(=O)O)C(=O)O (centres undefined)
inactive: dose: 50.0 mg/kg/injection, schedule: Q01DX005 (ip), vehicle: saline 101 % of control | dose: 100.0 mg/kg/injection, schedule: Q01DX005 (ip), vehicle: saline 98 % of control | dose: 200.0 mg/kg/injection, schedule: Q01DX005 (ip), vehicle: saline 100 % of control

N#CC(C#N)=Cc1ccc(N2CCCCC2)cc1
inactive: [2] 87 % of control | [4] 88 % of control | [6] 100 % of control

Source: PubChem BioAssay AID330 (DTP/NCI, 2004)
